Tests used:
[1] = target: Leucine-rich repeat serine/threonine-protein kinase 2 (Homo sapiens, UniProt Q5S007); experiment: Inhibition wild type LRRK2 (unknown origin) Ser935 phosphorylation in HEK293 cells; assay type: cell-based
[2] = target: Leucine-rich repeat serine/threonine-protein kinase 2 (Homo sapiens, UniProt Q5S007, G2019S); experiment: Inhibition LRRK2 G2019S mutant (unknown origin) Ser935 phosphorylation in HEK293 cells; assay type: cell-based
[3] = target: Eukaryotic elongation factor 2 kinase (Homo sapiens) (UniProt O00418); experiment: Inhibition of eEF2K ATP binding site (YIKYNSNSGFVR) in human PBMC at 1 uM
[4] = target: G protein-coupled receptor kinase 6 (Homo sapiens) (UniProt P43250); experiment: Inhibition of GPRK6 conserved Lys2 (DLKPENILLDDHGHIR) in human PBMC at 1 uM
[5] = target: Serine/threonine-protein kinase TBK1 (Homo sapiens) (UniProt Q9UHD2); experiment: Inhibition of TBK1 conserved Lys2 (DIKPGNIMR) in human PBMC at 1 uM
[6] = target: Interleukin-1 receptor-associated kinase 1 (Homo sapiens) (UniProt P51617); experiment: Inhibition of IRAK1 conserved Lys2 (AIQFLHQDSPSLIHGDIKSSNVLLDER) in human PBMC at 1 uM
[7] = target: Tyrosine-protein kinase JAK1 (Homo sapiens) (UniProt P23458); experiment: Inhibition of JAK1 domain1 (QLASALSYLEDKDLVHGNVCTKNLLLAR) in human PBMC at 1 uM
[8] = target: Kinase suppressor of Ras 1 (Homo sapiens) (UniProt Q8IVT5); experiment: Inhibition of KSR1 activation Loop (SKNVFYDNGK) in human PBMC at 1 uM
Kinase suppressor of Ras 1 (Homo sapiens), sequence (Q8IVT5 whole entry): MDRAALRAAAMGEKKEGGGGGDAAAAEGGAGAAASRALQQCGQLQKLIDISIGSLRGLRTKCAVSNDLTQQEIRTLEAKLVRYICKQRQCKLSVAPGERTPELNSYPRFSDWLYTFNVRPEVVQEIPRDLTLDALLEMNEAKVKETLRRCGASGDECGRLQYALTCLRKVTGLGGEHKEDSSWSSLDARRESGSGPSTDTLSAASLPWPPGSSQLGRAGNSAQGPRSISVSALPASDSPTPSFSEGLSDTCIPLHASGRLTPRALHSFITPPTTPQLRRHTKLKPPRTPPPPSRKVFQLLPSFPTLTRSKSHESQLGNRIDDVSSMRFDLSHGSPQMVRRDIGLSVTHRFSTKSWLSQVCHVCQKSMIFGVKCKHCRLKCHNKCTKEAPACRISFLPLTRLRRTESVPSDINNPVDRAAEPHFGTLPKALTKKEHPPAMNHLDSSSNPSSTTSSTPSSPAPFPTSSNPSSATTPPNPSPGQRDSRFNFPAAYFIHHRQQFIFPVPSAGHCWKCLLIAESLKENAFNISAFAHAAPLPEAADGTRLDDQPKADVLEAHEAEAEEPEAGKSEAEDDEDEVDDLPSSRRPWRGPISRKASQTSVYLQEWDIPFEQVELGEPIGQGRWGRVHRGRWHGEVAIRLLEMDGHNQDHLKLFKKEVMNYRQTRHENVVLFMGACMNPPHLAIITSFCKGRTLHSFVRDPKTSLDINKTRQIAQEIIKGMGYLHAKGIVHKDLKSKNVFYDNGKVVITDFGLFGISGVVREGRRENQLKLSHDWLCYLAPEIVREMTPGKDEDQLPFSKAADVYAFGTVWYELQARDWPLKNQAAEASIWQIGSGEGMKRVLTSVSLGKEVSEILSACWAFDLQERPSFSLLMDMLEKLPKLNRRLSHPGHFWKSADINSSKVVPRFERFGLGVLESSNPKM

[9] = target: Kinase suppressor of Ras 2 (Homo sapiens) (UniProt Q6VAB6); experiment: Inhibition of KSR2 activation Loop (SKNVFYDNGK) in human PBMC at 1 uM
Kinase suppressor of Ras 2 (Homo sapiens), sequence (Q6VAB6 whole entry, the tested form may be a part): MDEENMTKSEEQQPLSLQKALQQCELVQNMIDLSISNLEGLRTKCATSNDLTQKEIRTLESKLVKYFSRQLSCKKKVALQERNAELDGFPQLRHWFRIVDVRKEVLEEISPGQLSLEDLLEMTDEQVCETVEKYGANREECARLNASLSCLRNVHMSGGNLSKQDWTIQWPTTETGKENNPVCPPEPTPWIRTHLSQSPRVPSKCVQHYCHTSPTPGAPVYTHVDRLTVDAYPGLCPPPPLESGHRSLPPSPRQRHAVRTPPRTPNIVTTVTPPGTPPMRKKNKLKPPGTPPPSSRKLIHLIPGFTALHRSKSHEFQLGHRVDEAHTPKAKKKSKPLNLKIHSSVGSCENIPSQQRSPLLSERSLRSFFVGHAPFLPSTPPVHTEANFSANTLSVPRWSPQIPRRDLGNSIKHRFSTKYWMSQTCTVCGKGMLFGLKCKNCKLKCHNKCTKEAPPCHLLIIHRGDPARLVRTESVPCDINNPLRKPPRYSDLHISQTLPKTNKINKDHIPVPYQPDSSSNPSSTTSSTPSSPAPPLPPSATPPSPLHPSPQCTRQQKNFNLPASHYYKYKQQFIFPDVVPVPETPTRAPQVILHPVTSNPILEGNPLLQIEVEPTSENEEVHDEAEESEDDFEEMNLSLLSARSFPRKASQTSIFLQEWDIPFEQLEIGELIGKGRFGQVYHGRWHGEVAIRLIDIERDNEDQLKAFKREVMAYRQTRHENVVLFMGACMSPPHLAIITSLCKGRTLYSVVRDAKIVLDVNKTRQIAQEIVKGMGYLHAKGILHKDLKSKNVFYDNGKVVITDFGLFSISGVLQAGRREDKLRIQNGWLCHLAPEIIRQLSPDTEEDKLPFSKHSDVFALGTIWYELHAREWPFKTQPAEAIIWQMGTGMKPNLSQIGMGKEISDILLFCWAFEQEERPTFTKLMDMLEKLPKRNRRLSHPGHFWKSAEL

[10] = target: Ribosomal protein S6 kinase alpha-5 (Homo sapiens) (UniProt O75582); experiment: Inhibition of MSK1 domain1 conserved Lys2 (DIKLENILLDSNGHVVLTDFGLSK) in human PBMC at 1 uM
[11] = target: Phosphatidylinositol 4-kinase beta (Homo sapiens) (UniProt Q9UBF8); experiment: Inhibition of PI4KB ATP binding site (VPHTQAVVLNSKDK) in human PBMC at 1 uM
Phosphatidylinositol 4-kinase beta (Homo sapiens), sequence (Q9UBF8 2-816 limits assumed): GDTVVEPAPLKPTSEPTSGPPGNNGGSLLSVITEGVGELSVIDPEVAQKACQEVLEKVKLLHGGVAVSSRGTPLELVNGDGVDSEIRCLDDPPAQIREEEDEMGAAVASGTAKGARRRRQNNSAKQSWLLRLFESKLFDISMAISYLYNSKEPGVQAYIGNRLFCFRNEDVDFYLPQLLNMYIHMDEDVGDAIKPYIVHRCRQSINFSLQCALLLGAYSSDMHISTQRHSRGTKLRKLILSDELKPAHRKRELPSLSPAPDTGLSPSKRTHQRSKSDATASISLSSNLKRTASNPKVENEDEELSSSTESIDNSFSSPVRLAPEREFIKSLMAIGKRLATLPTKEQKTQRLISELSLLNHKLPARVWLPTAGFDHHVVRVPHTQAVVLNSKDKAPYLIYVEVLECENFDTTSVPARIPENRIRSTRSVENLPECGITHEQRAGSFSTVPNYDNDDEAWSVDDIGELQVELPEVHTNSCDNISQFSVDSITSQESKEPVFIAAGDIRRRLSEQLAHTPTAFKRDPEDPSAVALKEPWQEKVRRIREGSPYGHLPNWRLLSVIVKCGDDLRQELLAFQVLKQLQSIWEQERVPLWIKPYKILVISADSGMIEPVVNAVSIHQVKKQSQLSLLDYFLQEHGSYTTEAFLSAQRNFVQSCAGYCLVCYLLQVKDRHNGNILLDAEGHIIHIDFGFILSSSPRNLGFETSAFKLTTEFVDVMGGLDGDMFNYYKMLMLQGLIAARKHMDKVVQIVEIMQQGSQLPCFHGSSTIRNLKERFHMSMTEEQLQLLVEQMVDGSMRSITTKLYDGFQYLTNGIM

[12] = target: Protein kinase C beta type (Homo sapiens) (UniProt P05771); experiment: Inhibition of PKCb conserved Lys2 (DLKLDNVMLDSEGHIK) in human PBMC at 1 uM
[13] = target: Serine/threonine-protein kinase PLK1 (Homo sapiens) (UniProt P53350); experiment: Inhibition of PLK1 conserved Lys1 (CFEISDADTKEVFAGKIVPK) in human PBMC at 1 uM
[14] = target: Serine/threonine-protein kinase WNK1 (Homo sapiens) (UniProt Q9H4A3); experiment: Inhibition of Wnk1 ATP binding site (GSFKTVYK) in human PBMC at 1 uM
Serine/threonine-protein kinase WNK1 (Homo sapiens), sequence (Q9H4A3 whole entry, looked up): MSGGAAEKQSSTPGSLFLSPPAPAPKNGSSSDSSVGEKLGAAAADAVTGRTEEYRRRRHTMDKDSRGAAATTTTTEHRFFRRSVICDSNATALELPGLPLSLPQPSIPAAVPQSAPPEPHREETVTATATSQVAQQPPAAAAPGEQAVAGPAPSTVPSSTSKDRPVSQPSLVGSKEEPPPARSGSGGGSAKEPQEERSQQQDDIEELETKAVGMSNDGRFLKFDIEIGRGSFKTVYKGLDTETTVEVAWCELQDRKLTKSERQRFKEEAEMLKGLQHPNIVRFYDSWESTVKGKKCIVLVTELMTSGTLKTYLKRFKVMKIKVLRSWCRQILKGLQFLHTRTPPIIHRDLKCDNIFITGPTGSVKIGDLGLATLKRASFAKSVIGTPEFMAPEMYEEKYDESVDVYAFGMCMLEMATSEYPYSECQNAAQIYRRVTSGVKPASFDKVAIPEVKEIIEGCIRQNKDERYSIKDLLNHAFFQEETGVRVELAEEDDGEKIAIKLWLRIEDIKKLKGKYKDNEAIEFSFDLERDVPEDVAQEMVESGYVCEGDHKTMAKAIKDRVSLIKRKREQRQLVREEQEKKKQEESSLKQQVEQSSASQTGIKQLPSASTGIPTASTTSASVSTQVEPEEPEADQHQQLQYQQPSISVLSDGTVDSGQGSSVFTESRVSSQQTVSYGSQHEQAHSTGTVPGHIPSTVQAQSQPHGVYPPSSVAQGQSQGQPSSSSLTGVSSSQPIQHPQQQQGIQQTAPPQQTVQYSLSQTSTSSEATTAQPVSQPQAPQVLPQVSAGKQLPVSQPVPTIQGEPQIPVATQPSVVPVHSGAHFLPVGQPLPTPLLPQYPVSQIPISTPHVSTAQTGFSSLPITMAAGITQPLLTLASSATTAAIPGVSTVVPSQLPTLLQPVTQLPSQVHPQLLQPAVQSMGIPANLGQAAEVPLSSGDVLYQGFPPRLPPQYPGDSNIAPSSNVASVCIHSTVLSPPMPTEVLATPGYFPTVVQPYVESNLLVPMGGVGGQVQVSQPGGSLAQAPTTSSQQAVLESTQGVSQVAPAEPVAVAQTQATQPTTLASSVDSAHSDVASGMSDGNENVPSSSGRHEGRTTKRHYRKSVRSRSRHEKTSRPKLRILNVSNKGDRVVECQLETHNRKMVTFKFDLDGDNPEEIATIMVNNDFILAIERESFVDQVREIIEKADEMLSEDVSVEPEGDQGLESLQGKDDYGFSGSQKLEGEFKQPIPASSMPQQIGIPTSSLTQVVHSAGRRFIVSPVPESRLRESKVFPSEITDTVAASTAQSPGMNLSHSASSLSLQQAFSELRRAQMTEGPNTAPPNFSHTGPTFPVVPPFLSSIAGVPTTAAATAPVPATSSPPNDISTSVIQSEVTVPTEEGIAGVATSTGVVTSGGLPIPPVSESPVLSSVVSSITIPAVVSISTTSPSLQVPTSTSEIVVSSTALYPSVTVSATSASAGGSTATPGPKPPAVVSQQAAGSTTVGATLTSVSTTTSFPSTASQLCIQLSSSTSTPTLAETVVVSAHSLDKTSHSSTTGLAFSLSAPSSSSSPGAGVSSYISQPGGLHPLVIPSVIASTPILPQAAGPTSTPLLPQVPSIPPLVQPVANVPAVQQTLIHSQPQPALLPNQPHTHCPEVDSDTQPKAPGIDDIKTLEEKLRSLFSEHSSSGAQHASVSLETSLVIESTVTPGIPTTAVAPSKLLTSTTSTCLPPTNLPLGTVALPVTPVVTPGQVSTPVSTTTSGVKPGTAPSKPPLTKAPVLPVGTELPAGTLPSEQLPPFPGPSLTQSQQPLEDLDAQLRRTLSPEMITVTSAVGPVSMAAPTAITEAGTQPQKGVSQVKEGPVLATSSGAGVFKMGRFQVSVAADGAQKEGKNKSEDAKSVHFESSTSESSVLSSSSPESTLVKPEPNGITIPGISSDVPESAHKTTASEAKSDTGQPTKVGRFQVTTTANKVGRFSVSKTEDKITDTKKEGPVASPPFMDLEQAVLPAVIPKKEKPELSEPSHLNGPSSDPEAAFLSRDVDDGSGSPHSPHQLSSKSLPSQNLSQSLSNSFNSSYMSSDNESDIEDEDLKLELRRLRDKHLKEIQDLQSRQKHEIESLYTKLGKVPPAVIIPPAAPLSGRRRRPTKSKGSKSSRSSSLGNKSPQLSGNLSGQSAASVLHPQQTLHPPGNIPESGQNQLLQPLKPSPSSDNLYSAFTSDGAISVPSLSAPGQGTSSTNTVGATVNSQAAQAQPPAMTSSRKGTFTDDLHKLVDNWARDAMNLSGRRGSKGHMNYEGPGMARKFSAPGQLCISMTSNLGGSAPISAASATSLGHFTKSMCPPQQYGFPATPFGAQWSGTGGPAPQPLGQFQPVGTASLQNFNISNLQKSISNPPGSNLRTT

[15] = target: Serine/threonine-protein kinase WNK4 (Homo sapiens) (UniProt Q96J92); experiment: Inhibition of Wnk4 activation Loop (IGDLGLATLKR) in human PBMC at 1 uM
[16] = target: Tyrosine-protein kinase BTK (Homo sapiens) (UniProt Q06187); experiment: Inhibition of BTK labeling at activation Loop (YVLDDEYTSSVGSKFPVR) in human PBMC at 0.1 uM
[17] = target: Tyrosine-protein kinase Yes (Homo sapiens) (UniProt P07947); experiment: Inhibition of YES activation Loop (QGAKFPIKWTAPEAALYGR) in human PBMC at 0.1 uM
[18] = target: Mitogen-activated protein kinase 10 (Homo sapiens) (UniProt P53779); experiment: Inhibition of JNK3 conserved Lys2 (DLKPSNIVVK) in human PBMC at 0.1 uM
[19] = target: Kinase suppressor of Ras 1 (Homo sapiens) (UniProt Q8IVT5); experiment: Inhibition of KSR1 activation Loop (SKNVFYDNGK) in human PBMC at 0.1 uM
[20] = target: Dual specificity mitogen-activated protein kinase kinase 1 (Homo sapiens) (UniProt Q02750); experiment: Inhibition of MAP2K1 conserved Lys2 (IMHRDVKPSNILVNSR) in human PBMC at 0.1 uM
[21] = target: Mitogen-activated protein kinase kinase kinase 2 (Homo sapiens) (UniProt Q9Y2U5); experiment: Inhibition of MAP3K2 conserved Lys2 (DIKGANILR) in human PBMC at 0.1 uM
[22] = target: MAP/microtubule affinity-regulating kinase 4 (Homo sapiens) (UniProt Q96L34); experiment: Inhibition of MARK4 conserved Lys1 (EVAIKIIDK) in human PBMC at 0.1 uM
[23] = target: Serine/threonine-protein kinase 24 (Homo sapiens) (UniProt Q9Y6E0); experiment: Inhibition of MST3 conserved Lys2 (DIKAANVLLSEHGEVK) in human PBMC at 0.1 uM
[24] = target: Ribosomal protein S6 kinase alpha-3 (Homo sapiens) (UniProt P51812); experiment: Inhibition of RSK2 conserved Lys2 (DLKPENILLDEEGHIK) in human PBMC at 0.1 uM
[25] = target: T1, Serine/threonine-protein kinase ULK3 (Homo sapiens) (UniProt Q6PHR2); experiment: Inhibition of ULK3 conserved Lys2 (NISHLDLKPQNILLSSLEKPHLK) in human PBMC at 0.1 uM
T1 sequence (whole entry): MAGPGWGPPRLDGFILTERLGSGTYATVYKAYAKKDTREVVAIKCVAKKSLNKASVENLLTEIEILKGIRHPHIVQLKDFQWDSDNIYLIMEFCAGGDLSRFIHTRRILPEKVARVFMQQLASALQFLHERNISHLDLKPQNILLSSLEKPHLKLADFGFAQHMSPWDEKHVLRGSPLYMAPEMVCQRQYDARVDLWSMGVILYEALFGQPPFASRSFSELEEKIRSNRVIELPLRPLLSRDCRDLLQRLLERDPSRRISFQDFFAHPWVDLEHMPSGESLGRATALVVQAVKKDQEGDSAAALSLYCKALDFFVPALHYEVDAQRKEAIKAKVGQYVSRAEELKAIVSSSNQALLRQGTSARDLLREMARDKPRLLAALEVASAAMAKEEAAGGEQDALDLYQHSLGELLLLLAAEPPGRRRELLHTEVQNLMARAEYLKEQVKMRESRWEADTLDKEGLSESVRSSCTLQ

[26] = target: Serine/threonine-protein kinase WNK1 (Homo sapiens) (UniProt Q9H4A3); experiment: Inhibition of Wnk1 ATP binding site (GSFKTVYK) in human PBMC at 0.1 uM
[27] = target: Serine/threonine-protein kinase WNK2 (Homo sapiens) (UniProt Q9Y3S1); experiment: Inhibition of Wnk2 ATP binding site (GSFKTVYK) in human PBMC at 0.1 uM
[28] = target: Mitogen-activated protein kinase kinase kinase 20 (Homo sapiens) (UniProt Q9NYL2); experiment: Inhibition of ZAK conserved Lys1 (WISQDKEVAVKK) in human PBMC at 0.1 uM

`CC(C)n1cc(-c2cc(-c3ccc(CN4CCOCC4)cc3)cnc2N)nn1` showed an IC50 [1] of 2100 nM, an IC50 [2] of 920 nM and an inhibition [3] of -6.7%. It also gave an inhibition [4] of -10%, an inhibition [5] of 11% and an inhibition [6] of 17.3%. It also gave an inhibition [7] of 1.8%, an inhibition [8] of 20.1% and an inhibition [9] of 20.1%. It also gave an inhibition [10] of 9.8%, an inhibition [11] of 2.2% and an inhibition [12] of -7.4%. For the same compound, the inhibition [13] was 16%, the inhibition [14] was 14.2% and the inhibition [15] was 21.9%. It also gave an inhibition [16] of 14.2%, an inhibition [17] of -4.4% and an inhibition [18] of 25.1%. It also gave an inhibition [19] of 20.4%, an inhibition [20] of -5.6% and an inhibition [21] of 23.2%. For the same compound, the inhibition [22] was -6.7%, the inhibition [23] was 11% and the inhibition [24] was 11.8%. For the same compound, the inhibition [25] was 27.2%, the inhibition [26] was 18.3% and the inhibition [27] was 18.3%. For the same compound, the inhibition [28] was 11.3%.

Source: ChEMBL document CHEMBL4043168, “The design and SAR of a novel series of 2-aminopyridine based LRRK2 inhibitors” (Bioorg Med Chem Lett, 2017)
